Results from ChEMBL document CHEMBL3045253, “Synthesis and in vitro antiproliferative activity of diphenyl(sulphonylpiperidin-4-yl)methanol derivatives” (Med Chem Res, 2010).

Key:
HeLa = assay: Cytotoxicity against Homo sapiens (human) HeLa cells assessed as survival at 100 uM after 24 hr by MTT assay relative to control; format: functional; details: read-out: Survival
HepG2 = assay: Cytotoxicity against Homo sapiens (human) HepG2 cells assessed as survival at 100 uM after 24 hr by MTT assay relative to control; format: functional; details: HepG2, 24 h, read-out: Survival
MCF7 = assay: Cytotoxicity against Homo sapiens (human) MCF7 cells assessed as survival at 100 uM after 24 hr by MTT assay relative to control; format: functional; details: MCF7, 24 h, read-out: Survival
[1] = Cytotoxicity against Homo sapiens (human) NF103 cells assessed as survival at 100 uM after 24 hr by MTT assay relative to control; format: cell-based; details: read-out: Survival
HT-29 = assay: Cytotoxicity against Homo sapiens (human) HT-29 cells assessed as survival at 100 uM after 24 hr by MTT assay relative to control; format: functional; details: HT-29, 24 h, read-out: Survival

Structure (SMILES)	viability at 100 µM (HeLa) [%]	viability at 100 µM (HepG2) [%]	viability at 100 µM (MCF7) [%]	viability at 24 h, 100 µM [1] [%]	viability at 100 µM (HT-29) [%]
O=S(=O)(c1ccc(Cl)cc1)N1CCC(C(O)(c2ccccc2)c2ccccc2)CC1	49.7	52.2	61.4	53	69.6
O=[N+]([O-])c1ccccc1S(=O)(=O)N1CCC(C(O)(c2ccccc2)c2ccccc2)CC1	64.3	57.2	73.8	63.4	78.5
O=[N+]([O-])c1cccc(S(=O)(=O)N2CCC(C(O)(c3ccccc3)c3ccccc3)CC2)c1	70.3	64.2	63.4	57.4	75
O=[N+]([O-])c1ccc(S(=O)(=O)N2CCC(C(O)(c3ccccc3)c3ccccc3)CC2)cc1	54	68.7	69.8	53.6	70.8
Cc1ccc(S(=O)(=O)N2CCC(C(O)(c3ccccc3)c3ccccc3)CC2)cc1	71.2	62.7	70.2	65.6	45.1
Cc1noc(C)c1S(=O)(=O)N1CCC(C(O)(c2ccccc2)c2ccccc2)CC1	39.9	52.2	38.7	53.8	73.6
CS(=O)(=O)N1CCC(C(O)(c2ccccc2)c2ccccc2)CC1	64.4	60.9	60.5	64	74.7
O=S(=O)(c1ccccc1)N1CCC(C(O)(c2ccccc2)c2ccccc2)CC1	68.3	68.3	65.8	63	73.9
CCCc1ccc(S(=O)(=O)N2CCC(C(O)(c3ccccc3)c3ccccc3)CC2)cc1	73.1	62.6	68.7	60	74.2
CC(C)S(=O)(=O)N1CCC(C(O)(c2ccccc2)c2ccccc2)CC1	78.5	64.7	70.5	60	77.6
O=S(=O)(c1ccc(Cl)cc1F)N1CCC(C(O)(c2ccccc2)c2ccccc2)CC1	39.2	46.3	44.2	51.8	47.2
O=S(=O)(CCl)N1CCC(C(O)(c2ccccc2)c2ccccc2)CC1	56.1	59.1	66	53.5	45.2
O=S(=O)(Cc1ccccc1)N1CCC(C(O)(c2ccccc2)c2ccccc2)CC1	70.1	39.1	69.7	59.8	76.5
